Reference: patent publication US9572786B2, “Use of capsiate or dihydrocapsidate” (Catholic University Industry Academy Cooperation Foundation, priority 2007, dated 2017)

Tests used:
VE-cadherin = VE-cadherin expression in the intercellular junction, immunofluorescence; format: cell-based, human; details: HUVEC; 5, 10, 25 μM pre-treatment; VEGF 50 ng/mL for 1 hour
Description: In order to identify if the change of permeability of endothelial cells is related with VE-cadherin, the level of VE-cadherin expression in the intercellular junction was investigated.
HUVEC were placed on a gelatin-coated cover slip at a concentration of 12×10^5 cells/well and cultured for 24 hours. After washing twice with M199 medium, the cells were cultured in M199 medium containing 1% for 6 hours. After treating with capsiate or dihydrocapsiate at different concentrations (5 μM, 10 μM, 25 μM) for 30 minutes, the cells were treated with VEGF (50 ng/mL) for 1 hour. The cells were fixed and made permeable by treating with 2% formaldehyde for 10 minutes, and washed 3 times with PBS. Subsequently, the cells were treated with 0.1% Triton X-100 and 2% bovine serum albumin (BSA)/PBS blocking solution for 30 minutes. After labeling with VE-cadherin at room temperature for 2 hours, followed by washing with PBS, the cells were labeled again with FITC-conjugated secondary antibody at room temperature for 1 hour and 30 minutes. The cover slip was mounted on SloFade (Molecular Probes) and observed under a fluorescence microscope (Carl Zeiss).

HUVEC = experiment: Tube formation on Matrigel; format: cell-based, human; details: 1, 5, 10, 25 μM, VEGF 10 ng/mL, 20 hours
Description: The effect of capsiate or dihydrocapsiate on tube formation was investigated according to a method published in the literature [Lee O H et al., 1999, Biochem. Biophys. Res. Commun. 264; 743-750].
In brief, 250 μL of growth factor-reduced Matrigel (10 mg protein/mL) was added to a 16 mm tissue culture well and subjected to polymerization at 37° C. for 30 minutes. HUVEC cultured for in M199 medium containing 1% FBS for 6 hours were treated with trypsin, collected, and resuspended in M199 medium containing 1% FBS. Capsiate or dihydrocapsiate at different concentrations (1 μM, 5 μM, 10 μM, 25 μM) were pre-treated at room temperature for 30 minutes. The cells were added to the Matrigel at a concentration of 1.8×10^5 cells/well and VEGF (10 ng/mL) was added. After culturing for 20 hours, photograph was taken (×200) and the area covered by the tube network was measured according to an optical imaging technique [scanned with Adobe Photoshop and measured with Image-Pro Plus (Media Cybermetics).

IL-2 = experiment: Secretion of IL-2 by T cells, ELISA; format: cell-based, C57/BL6 mouse; details: mouse spleen T cells of Example 14-1; vs control group
From the text: In order to investigate the effect of capsiate on activation of T cells, the production of IL-2 by the T cells the proliferation of which was induced in Example 14-1 was compared with the non-capsiate-treated control group. IL-2 is a T cell proliferation factor secreted from stimulated T cells and acts as a cytokine affecting the proliferation of T helper cells, cytotoxic T (TC) cells and natural killer (NK) cells, activation of T cells, proliferation of B cells, and production of antibody.
Specifically, the degree of IL-2 production was measured by ELISA. IL-2 recognition antibody was attached on a 96-well plate. Next day, after suppressing non-specific recognition using blocking buffer (PBS containing 5% BSA), cultured T cells were added to the plate and incubated at room temperature for 4 hours. Subsequently, after incubating using biotinylated IL-2 secondary antibody (Becton Dikinson, USA), absorbance (540 nm) was measured using an ELISA reader using biotin-recognizing enzyme antibody (streptavidine-conjugated HRP, Becton Dikinson, USA), while varying the substrate.

ERK = experiment: MAPK signaling after UV, Western blotting: ERK; format: cell-based, human; details: HaCaT cells; 10, 25, 50 μM; 30 minutes after UV irradiation
Description: Western blotting was performed in the same manner as in Example 2-1 in order to identify the factor that affects the COX-2 expression regulated by capsiate, except for treating the cells with capsiate at different concentrations (10 μM, 25 μM and 50 μM) prior to UV irradiation, and using rabbit anti-ERK antibody, rabbit anti-p-ERK antibody, rabbit anti-p38 antibody, rabbit anti-p-p38 antibody, rabbit anti-JNK antibody and rabbit anti-p-JNK antibody (cell signaling), and anti-rabbit IgG-HRP conjugation antibody (Zymed) as the secondary antibody, 30 minutes after UV irradiation.

hairless mouse (SKH-1) = experiment: UV-induced skin damage in hairless mouse (observation, hematoxylin-eosin staining); format: in vivo; details: 200 μL of 1 mM in acetone topically every 24 hours, UV 2.5 kJ/m^2 4 times
Description: In order to confirm the in vitro experiment result performed on the human keratinocyte HaCaT cells in an animal model, experiment was carried out as follows using hairless mouse (SKH-1). Test groups were as follows: non-treated group—treated with acetone only without UV irradiation; test group A—treated with 200 μL of 1 mM capsiate dissolved in acetone every 24 hours without UV irradiation; control group—treated with UV and acetone; test group B—treated with UV and 200 μL of 1 mM capsiate dissolved in acetone every 24 hours (Unspecified conditions are the same as in Examples 5-7.).
Capsiate was applied on the back of the mouse. 1 hour later, UV was irradiated at an intensity of 2.5 kJ/m^2. 1 hour later, capsiate was applied again at the same concentration in order to prevent rash which may occur immediately after UV irradiation. Thereafter, capsiate was applied every 24 hours and UV irradiation was carried out every other day at an intensity of 2.5 kJ/m^2 for 4 times. In order to investigate the change of tissue and intracellular mechanism (signaling), the mouse was euthanized 1 hour after the final UV irradiation. Skin tissue was taken from the back of the mouse and subjected to skin biopsy following observation.
Hematoxylin-eosin staining was carried out in order to investigate the overall change in the skin tissue.

SMILES	cell adhesion ability of VE-cadherin in the intercellular junction (VE-cadherin)	VEGF-induced formation of tube-like structures (HUVEC)	IL-2 production by T cells (IL-2)	phosphorylation of ERK (ERK)	blood vessels and edema (hematoxylin-eosin staining) (hairless mouse (SKH-1))	hyperplasia in the epidermis (hematoxylin-eosin staining) (hairless mouse (SKH-1))	blood vessel thickness and blood in back skin tissue (hairless mouse (SKH-1); vs UV control)	size and depth of wound induced by UV irradiation (hairless mouse (SKH-1); vs UV control)
COc1cc(COC(=O)CCCCCCC(C)C)ccc1O [dihydrocapsiate]	recovered	reduced	–	–	–	–	–	–
COc1cc(COC(=O)CCCC/C=C/C(C)C)ccc1O [capsiate]	recovered	reduced	significantly decreased	inhibited	also decreased	decreased remarkably	less blood vessel thickness and less blood	less severe
